Experimental data from paper PMC8161026, “Synthesis and Anticancer Activity Evaluation of 5-[2-Chloro-3-(4-nitrophenyl)-2-propenylidene]-4-thiazolidinones” (Molecules, 2021).

What was measured:
RPMI-8226 = RPMI-8226 (Leukemia), 48 h, SRB
EKVX = EKVX (Non-Small Cell Lung Cancer), 48 h, SRB
NCI-H23 = NCI-H23 (Non-Small Cell Lung Cancer), 48 h, SRB
HCT-116 = HCT-116 (Colon Cancer), 48 h, SRB
SNB-75 [1] = conditions: SNB-75 (CNS Cancer), 48 h, SRB
U251 = U251 (CNS Cancer), 48 h, SRB
HL-60(TB) = test: cells; conditions: Homo sapiens, HL-60, 48 h; for CC50: read-out: LC50
NCI-H460 = test: cells; conditions: Homo sapiens, NCI-H460, 48 h; for CC50: read-out: LC50
SW-620 = test: cells; conditions: Homo sapiens, SW-620, 48 h; for CC50: read-out: LC50
SNB-75 [2] = test: cells; conditions: Homo sapiens, SNB-75, 48 h
LOX IMVI = test: cells; conditions: Homo sapiens, 48 h; for CC50: read-out: LC50
SK-MEL-28 = test: cells; conditions: Homo sapiens, SK-MEL-28, 48 h
T-47D = test: cells; conditions: Homo sapiens, T47D, 48 h; for CC50: read-out: LC50
NCI-H226 = test: NCI DTP 60 cell line screen, SRB; conditions: for GI50 / CC50: Homo sapiens, NCI-H226, 48 h; for CC50: read-out: LC50; for TGI: NCI-H226 (Non-Small Cell Lung Cancer), 48 h, SRB
SF-539 = test: NCI DTP 60 cell line screen, SRB; conditions: for GI50 / CC50: Homo sapiens, SF-539, 48 h; for CC50: read-out: LC50; for TGI: SF-539 (CNS Cancer), 48 h, SRB
M14 = test: NCI DTP 60 cell line screen, SRB; conditions: for GI50 / CC50: Homo sapiens, M14, 48 h; for CC50: read-out: LC50; for TGI: M14 (Melanoma), 48 h, SRB
OVCAR-3 = test: NCI DTP 60 cell line screen, SRB; conditions: for GI50 / CC50: Homo sapiens, OVCAR-3, 48 h; for CC50: read-out: LC50; for TGI: OVCAR-3 (Ovarian Cancer), 48 h, SRB
SK-OV-3 = test: NCI DTP 60 cell line screen, SRB; conditions: for GI50 / CC50: Homo sapiens, SK-OV-3, 48 h; for CC50: read-out: LC50; for TGI: SK-OV-3 (Ovarian Cancer), 48 h, SRB
A498 = test: NCI DTP 60 cell line screen, SRB; conditions: for TGI: A498 (Renal Cancer), 48 h, SRB; for GI50 / CC50: Homo sapiens, A498, 48 h; for CC50: read-out: LC50
ACHN = test: NCI DTP 60 cell line screen, SRB; conditions: 48 h; for TGI: ACHN (Renal Cancer), SRB; for GI50 / CC50: Homo sapiens, ACHN; for CC50: read-out: LC50
MCF-7 = test: NCI DTP 60 cell line screen, SRB; conditions: for GI50 / CC50: Homo sapiens, MCF7, 48 h; for CC50: read-out: LC50; for TGI: MCF-7 (Breast Cancer), 48 h, SRB
MDA-MB-231/ATCC = test: NCI DTP 60 cell line screen, SRB; conditions: for GI50 / CC50: Homo sapiens, MDA-MB-231, 48 h; for CC50: read-out: LC50; for TGI: MDA-MB-231/ATCC (Breast Cancer), 48 h, SRB

`O=C1NC(=S)S/C1=C\C(Cl)=C\c1ccc([N+](=O)[O-])cc1` [Compound 2b, 5-[(Z,2Z)-2-Chloro-3-(4-nitrophenyl)-2-propenylidene]-2-thioxo-4-thiazolidinone] showed a TGI (RPMI-8226) of 20.6 µM, a TGI (EKVX) of over 50 µM and a TGI (NCI-H23) of 13.4 µM. The TGI (HCT-116) was 11.0 µM, the TGI (SNB-75 [1]) was 23.5 µM and the TGI (U251) was 9.73 µM. For the same compound, the GI50 (HL-60(TB)) was 1.21 µM, the CC50 (HL-60(TB)) was over 50 µM and the GI50 (NCI-H460) was 3.95 µM. For the same compound, the CC50 (NCI-H460) was over 50 µM, the GI50 (SW-620) was 1.94 µM and the CC50 (SW-620) was 23.5 µM. It also gave a GI50 (SNB-75 [2]) of 7.59 µM, a CC50 (SNB-75 [2]; read-out: LC50) of over 50 µM and a GI50 (LOX IMVI) of 6.6 µM. The CC50 (LOX IMVI) was 36 µM, the GI50 (SK-MEL-28) was 5.87 µM and the CC50 (SK-MEL-28; read-out: LC50) was 25.9 µM. It also gave a GI50 (T-47D) of 3.21 µM, a CC50 (T-47D) of over 50 µM and a GI50 (NCI-H226) of 6.28 µM. The CC50 (NCI-H226) was over 50 µM, the TGI (NCI-H226) was 20.0 µM and the GI50 (SF-539) was 9.39 µM. It also gave a CC50 (SF-539) of over 50 µM, a TGI (SF-539) of 23.1 µM and a GI50 (M14) of 8.87 µM. It also gave a CC50 (M14) of over 50 µM, a TGI (M14) of 32.2 µM and a GI50 (OVCAR-3) of 1.65 µM. It also gave a CC50 (OVCAR-3) of 26.6 µM, a TGI (OVCAR-3) of 8.08 µM and a GI50 (SK-OV-3) of 13 µM. The CC50 (SK-OV-3) was over 50 µM, the TGI (SK-OV-3) was over 50 µM and the TGI (A498) was 12.2 µM. The GI50 (A498) was 4.57 µM, the CC50 (A498) was 30.9 µM and the TGI (ACHN) was 11.8 µM. The GI50 (ACHN) was 3.64 µM, the CC50 (ACHN) was 31.7 µM and the GI50 (MCF-7) was 2.14 µM. It also gave a CC50 (MCF-7) of over 50 µM, a TGI (MCF-7) of 38.0 µM and a GI50 (MDA-MB-231/ATCC) of 8.16 µM. The CC50 (MDA-MB-231/ATCC) was over 50 µM and the TGI (MDA-MB-231/ATCC) was 28.1 µM.
`O=C1/C(=C/C(Cl)=C/c2ccc([N+](=O)[O-])cc2)SC(=S)N1/N=C\C(Cl)=C\c1ccc([N+](=O)[O-])cc1` [Compound 2c, 5-[(Z,2Z)-2-Chloro-3-(4-nitrophenyl)-2-propenylidene]-3-[(Z,2Z)-2-chloro-3-(4-nitrophenyl)-2-propenylideneamino]-2-thioxo-4-thiazolidinone] was tested, and the TGI (RPMI-8226) was 6.32 µM, the TGI (EKVX) was 47.7 µM and the TGI (NCI-H23) was 31.6 µM. It also gave a TGI (HCT-116) of 6.51 µM, a TGI (U251) of 24.5 µM and a GI50 (HL-60(TB)) of 5.32 µM. For the same compound, the CC50 (HL-60(TB)) was 87.2 µM, the GI50 (NCI-H460) was 15 µM and the CC50 (NCI-H460) was 69.5 µM. It also gave a GI50 (SW-620) of 7.24 µM, a CC50 (SW-620) of over 100 µM and a GI50 (LOX IMVI) of 13 µM. It also gave a CC50 (LOX IMVI) of 63.8 µM, a GI50 (T-47D) of 24.5 µM and a CC50 (T-47D) of over 100 µM. For the same compound, the GI50 (NCI-H226) was 12 µM, the CC50 (NCI-H226) was 84.2 µM and the TGI (NCI-H226) was 31.8 µM. For the same compound, the GI50 (SF-539) was 25.9 µM, the CC50 (SF-539) was over 100 µM and the TGI (SF-539) was 57.4 µM. It also gave a GI50 (M14) of 16.2 µM, a CC50 (M14) of 78.5 µM and a TGI (M14) of 35.7 µM. The GI50 (OVCAR-3) was 0.821 µM, the CC50 (OVCAR-3) was 41.1 µM and the TGI (OVCAR-3) was 12.7 µM. The GI50 (SK-OV-3) was 59.6 µM, the CC50 (SK-OV-3) was over 100 µM and the TGI (SK-OV-3) was over 100 µM. It also gave a TGI (A498) of 29.6 µM, a GI50 (A498) of 13 µM and a CC50 (A498) of 67.3 µM. The TGI (ACHN) was 29.7 µM, the GI50 (ACHN) was 15.6 µM and the CC50 (ACHN) was 56.4 µM. For the same compound, the GI50 (MCF-7) was 4.08 µM, the CC50 (MCF-7) was 83.7 µM and the TGI (MCF-7) was 19.8 µM. For the same compound, the GI50 (MDA-MB-231/ATCC) was 10 µM, the CC50 (MDA-MB-231/ATCC) was over 100 µM and the TGI (MDA-MB-231/ATCC) was 35.4 µM.
